Assay results published in US20170260126A1, “SQUALENE COMPOUNDS AS MODULATORS OF LDL-RECEPTOR EXPRESSION” (OXFORD UNIVERSITY INNOVATION LIMITED, priority 2014, published 2017).

Assays:
[1] = tested on: CHO pLDLR-Luciferase cells; assay: Luciferase assay (LDLR promoter-luciferase reporter in CHO cells); format: cell-based, Chinese Hamster; design: Emax: unit not given here; conditions: 48 hours after treatment; for EC50: Cricetulus griseus
Description: Chinese Hamster Ovary (CHO) cells cultivated in 2×75 […] conical flasks had their media removed and washed in 5 mL of PBS before 2 mL of Trypsin was added. The cells were swirled for a minute, before being placed in the 37° C. incubator for 5 min. The conical flasks were tapped to remove cells from the bottom, and aspirated out into 2×13 mL of Ham F-12 media containing 10% FBS and 1% L-Glutamine. The cells were then spun down at 1000 rpm for 5 min. The media was aspirated off, and the pellet from each of the two flasks was resuspended in 5 mL of media. The cells were counted, plated into a 24-well plate to give 1.5×10^5 cells/well in 500 μL of media, and placed in the 37° C. incubator. 2 mL of the remaining cells was added to 38 mL of media, plated 20 mL each into 2×75 cm^2 conical flasks, and placed in the 37° C. incubator.
After 24 h, the media was aspirated out and replaced with 500 μL Lipoprotein Deficient Serum (LPDS) media. The plate was then returned to the incubator for a further 24 h.
Following this incubation, the compound to be tested was dissolved in DMSO to give a concentration of 1 mg/mL. An appropriate amount of this solution was then added to FPS media to give 5 mL at a concentration of 10 μM. Serial dilution then gave the other required concentrations, to give testing concentrations of 0.1 nM, 1 nM, 10 nM, 30 nM, 100 nM, 1 μM and 10 μM. A 1 μM compound 49 positive control was also prepared from a stock solution in DMSO, and 0.1% DMSO control was also prepared as a negative control. Each well was then treated with 500 μL of each solution, according to the plate map shown below, and the plates were placed in the incubator.
48 hours after treatment, the cell media was aspirated and cells were washed with 500 μL of PBS. 100 μL of luciferase lysis buffer (12.5 mL 1M TrisPO4 pH 7.8, 5 mL 0.2M CDTA solution, 50 mL glycerol, 5 mL Triton-X 100, 427.5 mL H2O) was added to each sample; samples were shaken for 20 min at 4° C. before being pipetted up and down, then the plate was spun at 4500 rpm for 5 min. 75 μL of lysate was pippetted into a 96-well plate. The plate was then run on a Dynex Technologies MLX 96 Well Plate Luminometer using revalation software. 100 µL of luciferase assay buffer solution and 50 μL of Luciferin solution (200 μL Luciferin 10X, 1800 μL H2O) was dispensed each time. Response was recorded in Relative Light Units (RLUs), normalised to standards from a bicinchoninic acid (BCA) assay.
Prepared using 3 mL luciferase assay buffer (7.5 mL 1M MgSO4, 7.5 mL 1M TrisPO4 pH 7.8 buffer, 20 mL 0.1M EGTA pH 7.8, 465 mL H2O), added to 60 μL of 100 mM ATP and 6 μL of 1 M DTT solution.

Squalene Synthase = biological target: T1, Squalene Synthase (Homo sapiens, UniProt P37268); assay: Squalene Synthase activity assay in human liver microsomes with [1-3H]FPP; format: biochemical; conditions: FIG. 1b
T1 construct: 12 μg human liver microsomes; from tissue; host or cells: human liver microsomes
T1 sequence (P37268 1-417): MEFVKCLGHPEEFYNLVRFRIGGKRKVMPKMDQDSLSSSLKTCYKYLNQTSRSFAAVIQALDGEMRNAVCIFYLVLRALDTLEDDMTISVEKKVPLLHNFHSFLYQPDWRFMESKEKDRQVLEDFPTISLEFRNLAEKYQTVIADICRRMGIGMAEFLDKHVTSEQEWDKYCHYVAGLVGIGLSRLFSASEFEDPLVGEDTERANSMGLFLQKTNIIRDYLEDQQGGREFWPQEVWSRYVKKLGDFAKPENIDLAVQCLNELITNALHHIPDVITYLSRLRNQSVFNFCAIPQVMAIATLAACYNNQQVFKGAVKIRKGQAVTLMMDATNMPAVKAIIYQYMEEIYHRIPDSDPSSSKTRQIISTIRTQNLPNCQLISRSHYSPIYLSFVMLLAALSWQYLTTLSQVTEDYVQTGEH
Description: Squalene Synthase activity assays were performed in 1 mL reactions containing 50 mM phosphate buffer (pH 7.4, 10 mM MgCl2), 12 μg human liver microsomes, [1-^3H]FPP (0.045 Ci/mmol) and 0.5 mM NADPH. Enzyme and inhibitors were incubated for 10 minutes at 37° C. Substrate was then added and reaction was incubated for 10 min at 37° C. Reaction was stopped by adding 1 mL of 15% KOH in ethanol and incubated at 65° C. for 30 minutes. 5 mL of petroleum ether was added and reaction was shaken for 10 minutes at room temperature. The lower aqueous phase was frozen and the upper organic phase transferred to fresh glass tubes containing 2 mL distilled water. 1.5 mL of the organic phase was transferred to a scintillation vial containing liquid scintillation fluid, and radioactivity was quantitated using a Beckman liquid scintillation counter. Data was analyzed using Prism Graphpad software.
As a representative example, compound 40 (Example 15; JM-086) was tested for squalene synthase inhibitory properties alongside compound 15a (Example 1), and the known squalene synthase inhibitor, YM-53601, as a positive control.

[2] = tested on: CHO pLDLR-Luciferase cells; assay: Combination therapy experiments, luciferase compound screen with simvastatin; format: cell-based, Chinese Hamster; conditions: Cricetulus griseus; single agent, CHO-pLDLR-Luc, FIG. 3a/3b; read-out: EC50, increase in levels of luciferase
Description: As described above, CHO WT cells transfected with pLDLR-Luc (CHO-pLDLR-Luc) were grown in HamsF-12(Sigma N4888) medium supplemented with 10% fetal bovine serum (FBS), 1% penicillin/streptomycin, 1% L-glutamine, in a 5% CO2 incubator at 37° C. CHO-pLDLR-Luc were seeded in 24-well plates at 1.5×10^5 per well. After 24h cells were changed to HamsF-12(Sigma N4888) supplemented with 10% lipoprotein deficient serum (LDPS), 1% penicillin/streptomycin, 1% L-glutamine. Compounds and simvastatin (Sigma S6196) dissolved in DMSO and Cholesterol(Sigma C8667) and 25-Hydroxycholesterol(Sigma H1015) dissolved in ethanol were added 24 h after serum starvation.
Simvastatin and compound 40 (Example 15; JM-086) were added together. The compounds were added at the exact same time, with the EC50 of either compound 40 (JM-086) or Simvastatin added into the media containing increasing doses of either compound 40 (JM-086) or Simvastatin then being added to the CHO pLDLR-Luciferase cells.

`CN(C)CCCOc1ccc(/C=C/c2ccccc2[N+](=O)[O-])cc1` [Compound 47c, (E)-N,N-dimethyl-3-(4-(2-nitrostyryl)phenoxy)propan-1-amine] showed a melting point of 51.9 to 57.1 °C, an Emax [1] of 5 and an EC50 [1] of 3 µM.
For `CN(C)CCCOc1ccc(/C=C/c2ccccc2)cc1F` [Compound 62, (E)-3-(2-fluoro-4-styrylphenoxy)-N,N-dimethylpropan-1-amine], the melting point was 68.2 to 72.6 °C, the Emax [1] was 15 and the EC50 [1] was 3 µM.
Compound `COCCCOc1ccc(/C=C/c2ccccc2)cc1` [Compound 41, (E)-1-(3-methoxypropoxy)-4-styrylbenzene] has a melting point of 77.8 to 81 °C, an Emax [1] of 44 and an EC50 [1] of 1.5 µM.
For `CN(C)CCCOc1ccc(/C=C/c2ccccc2)cc1` [Compound 15a, (E)-N,N-dimethyl-3-(4-styrylphenoxy)propan-1-amine], the melting point was 75 to 77 °C, the squalene synthase inhibition (Squalene Synthase) was “dose-dependent activity” and the Emax [1] was 5. For the same compound, the EC50 [1] was 0.039 µM.
`Oc1ccc(/C=C/c2ccccc2)cc1` [Compound 32, (E)-4-styrylphenol] gave an Emax [1] of 34 and an EC50 [1] of 3 µM.
For `CCC(C)(C)C(=O)O[C@H]1C[C@@H](C)C=C2C=C[C@H](C)[C@H](CC[C@@H]3C[C@@H](O)CC(=O)O3)[C@H]21` [Simvastatin, reference compound], the EC50 [2] was 0.128 µM.
In the case of `COc1ccc(/C=C/c2ccc(OCCCN(C)C)cc2)cc1` [Compound 44a, (E)-3-(4-(4-methoxystyryl)phenoxy)-N,N-dimethylpropan-1-amine], the melting point is reported as 138 to 140 °C, the Emax [1] is reported as 30 and the EC50 [1] is reported as 0.26 µM.
Compound `CN(C)CCCOc1ccc(/C=C/c2cccc(F)c2)cc1` [Compound 46b, (E)-3-(4-(3-fluorostyryl)phenoxy)-N,N-dimethylpropan-1-amine] has a melting point of 56.2 to 58.6 °C, an Emax [1] of 9 and an EC50 [1] of 1.5 µM.
Compound `CN(C)CCCOc1ccc(/C=C/c2ccc(F)cc2)cc1` [Compound 46a, (E)-3-(4-(4-fluorostyryl)phenoxy)-N,N-dimethylpropan-1-amine] has a melting point of 128.8 to 129.9 °C, an Emax [1] of 24 and an EC50 [1] of 2 µM.
With `COc1ccccc1/C=C/c1ccc(OCCCN(C)C)cc1` [Compound 44c, (E)-3-(4-(2-methoxystyryl)phenoxy)-N,N-dimethylpropan-1-amine] the melting point was 177.6 to 180.9 °C, the Emax [1] was 8 and the EC50 [1] was 0.31 µM.
In the case of `OCCCOc1ccc(/C=C/c2ccccc2)cc1` [Compound 40, (E)-3-(4-styrylphenoxy)propan-1-ol], the squalene synthase inhibition (Squalene Synthase) is reported as “dose-dependent activity”, the Emax [1] is reported as 32 and the EC50 [1] is reported as 0.035 µM. For the same compound, the EC50 [2] was 0.0315 µM.
In the case of `CN(C)CCCOc1ccc(/C=C/c2ccc([N+](=O)[O-])cc2)cc1` [Compound 47a, (E)-N,N-dimethyl-3-(4-(4-nitrostyryl)phenoxy)propan-1-amine], the melting point is reported as 85.2 to 85.9 °C, the Emax [1] is reported as 39 and the EC50 [1] is reported as 3 µM.
With `CNCCCOc1ccc(/C=C/c2ccccc2)cc1` [Compound 69, (E)-N-methyl-3-(4-styrylphenoxy)propan-1-amine] the melting point was 84.2 to 87.7 °C, the Emax [1] was 8 and the EC50 [1] was 0.32 µM.
For `COc1cccc(/C=C/c2ccc(OCCCN(C)C)cc2)c1` [Compound 44b, (E)-3-(4-(3-methoxystyryl)phenoxy)-N,N-dimethylpropan-1-amine], the melting point was 28 to 32 °C, the Emax [1] was 9 and the EC50 [1] was 2.5 µM.
`COc1ccc(/C=C/c2ccccc2)cc1` [Compound 65, (E)-1-methoxy-4-styrylbenzene] gave an Emax [1] of 6 and an EC50 [1] of 0.05 µM.
Work on `CC(C)CCCOc1ccc(/C=C/c2ccccc2)cc1` [Compound 39, (E)-1-((4-methylpentyl)oxy)-4-styrylbenzene] yielded a melting point of 97 to 98 °C, an Emax [1] of 8 and an EC50 [1] of 1 µM.
